Source: PubChem BioAssay (NCI)
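These data come from cells grown in 96-well plates and exposed to compound for 48 hours at five concentrations. Definition used: TGI = concentration required for complete inhibition of growth.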

Key:
Assay in all cases: DTP human tumour cell line panel, 48 h
786-0 renal = test system: 786-0 renal
A549 NSCLC = test system: A549 NSCLC
ACHN renal = test system: ACHN renal
BT-549 breast = test system: BT-549 breast
CAKI-1 renal = test system: CAKI-1 renal
CCRF-CEM leukemia = test system: CCRF-CEM leukemia
COLO 205 colon = test system: COLO 205 colon
DU-145 prostate = test system: DU-145 prostate
EKVX NSCLC = test system: EKVX NSCLC
HCC-2998 colon = test system: HCC-2998 colon
HCT-116 colon = test system: HCT-116 colon
HCT-15 colon = test system: HCT-15 colon
HL-60(TB) leukemia = test system: HL-60(TB) leukemia
HOP-62 NSCLC = test system: HOP-62 NSCLC
HOP-92 NSCLC = test system: HOP-92 NSCLC
HS 578T breast = test system: HS 578T breast
HT29 colon = test system: HT29 colon
IGROV1 ovarian = test system: IGROV1 ovarian
K-562 leukemia = test system: K-562 leukemia
KM12 colon = test system: KM12 colon
LOX IMVI melanoma = test system: LOX IMVI melanoma
M14 melanoma = test system: M14 melanoma
MALME-3M melanoma = test system: MALME-3M melanoma
MCF7 breast = test system: MCF7 breast
MDA-MB-231 breast = test system: MDA-MB-231 breast
MDA-MB-435 = test system: MDA-MB-435
MDA-N = test system: MDA-N
MOLT-4 leukemia = test system: MOLT-4 leukemia
NCI-H226 lung = test system: NCI-H226 lung
NCI-H23 lung = test system: NCI-H23 lung
NCI-H460 lung = test system: NCI-H460 lung
NCI-H522 lung = test system: NCI-H522 lung
NCI/ADR-RES ovarian = test system: NCI/ADR-RES ovarian
OVCAR-3 ovarian = test system: OVCAR-3 ovarian
OVCAR-4 ovarian = test system: OVCAR-4 ovarian
OVCAR-5 ovarian = test system: OVCAR-5 ovarian
OVCAR-8 ovarian = test system: OVCAR-8 ovarian
PC-3 prostate = test system: PC-3 prostate
RXF 393 renal = test system: RXF 393 renal
SF-268 CNS = test system: SF-268 CNS
SF-295 CNS = test system: SF-295 CNS
SF-539 CNS = test system: SF-539 CNS
SK-MEL-2 melanoma = test system: SK-MEL-2 melanoma
SK-MEL-28 melanoma = test system: SK-MEL-28 melanoma
SK-MEL-5 melanoma = test system: SK-MEL-5 melanoma
SK-OV-3 ovarian = test system: SK-OV-3 ovarian
SN12C renal = test system: SN12C renal
SNB-19 CNS = test system: SNB-19 CNS
SNB-75 CNS = test system: SNB-75 CNS
SW-620 colon = test system: SW-620 colon
T-47D breast = test system: T-47D breast
TK-10 renal = test system: TK-10 renal
U251 CNS = test system: U251 CNS
UACC-257 melanoma = test system: UACC-257 melanoma
UACC-62 melanoma = test system: UACC-62 melanoma
UO-31 renal = test system: UO-31 renal
RPMI-8226 leukemia = test system: RPMI-8226 leukemia
SR leukemia = test system: SR leukemia
A498 renal = test system: A498 renal

COC(=O)c1c(C)cccc1C1CN=NC12Cc1cc(C)c(C)cc1C2=O (centres undefined)
TGI (786-0 renal): > 100 µM
TGI (A549 NSCLC): > 100 µM
TGI (ACHN renal): > 100 µM
TGI (BT-549 breast): > 100 µM
TGI (CAKI-1 renal): > 100 µM
TGI (CCRF-CEM leukemia): > 100 µM
TGI (COLO 205 colon): > 100 µM
TGI (DU-145 prostate): > 100 µM
TGI (EKVX NSCLC): > 100 µM
TGI (HCC-2998 colon): > 100 µM
TGI (HCT-116 colon): > 100 µM
TGI (HCT-15 colon): > 100 µM
TGI (HL-60(TB) leukemia): 45.5 µM
TGI (HOP-62 NSCLC): > 100 µM
TGI (HOP-92 NSCLC): > 100 µM
TGI (HS 578T breast): > 100 µM
TGI (HT29 colon): > 100 µM
TGI (IGROV1 ovarian): > 100 µM
TGI (K-562 leukemia): > 100 µM
TGI (KM12 colon): > 100 µM
TGI (LOX IMVI melanoma): 67.9 µM
TGI (M14 melanoma): > 100 µM
TGI (MALME-3M melanoma): > 100 µM
TGI (MCF7 breast): > 100 µM
TGI (MDA-MB-231 breast): > 100 µM
TGI (MDA-MB-435): > 100 µM
TGI (MDA-N): 99.5 µM
TGI (MOLT-4 leukemia): > 100 µM
TGI (NCI-H226 lung): > 100 µM
TGI (NCI-H23 lung): > 100 µM
TGI (NCI-H460 lung): > 100 µM
TGI (NCI-H522 lung): 54.6 µM
TGI (NCI/ADR-RES ovarian): > 100 µM
TGI (OVCAR-3 ovarian): > 100 µM
TGI (OVCAR-4 ovarian): > 100 µM
TGI (OVCAR-5 ovarian): > 100 µM
TGI (OVCAR-8 ovarian): > 100 µM
TGI (PC-3 prostate): > 100 µM
TGI (RXF 393 renal): > 100 µM
TGI (SF-268 CNS): > 100 µM
TGI (SF-295 CNS): > 100 µM
TGI (SF-539 CNS): > 100 µM
TGI (SK-MEL-2 melanoma): > 100 µM
TGI (SK-MEL-28 melanoma): > 100 µM
TGI (SK-MEL-5 melanoma): 46.3 µM
TGI (SK-OV-3 ovarian): > 100 µM
TGI (SN12C renal): > 100 µM
TGI (SNB-19 CNS): > 100 µM
TGI (SNB-75 CNS): > 100 µM
TGI (SW-620 colon): > 100 µM
TGI (T-47D breast): > 100 µM
TGI (TK-10 renal): > 100 µM
TGI (U251 CNS): > 100 µM
TGI (UACC-257 melanoma): > 100 µM
TGI (UACC-62 melanoma): > 100 µM
TGI (UO-31 renal): > 100 µM

N#CCc1nc(-c2cc3ccccc3oc2=O)cs1
TGI (786-0 renal): > 100 µM
TGI (A549 NSCLC): > 100 µM
TGI (ACHN renal): > 100 µM
TGI (BT-549 breast): 66.8 µM
TGI (CAKI-1 renal): > 100 µM
TGI (CCRF-CEM leukemia): > 100 µM
TGI (COLO 205 colon): > 100 µM
TGI (DU-145 prostate): > 100 µM
TGI (EKVX NSCLC): > 100 µM
TGI (HCC-2998 colon): > 100 µM
TGI (HCT-116 colon): > 100 µM
TGI (HCT-15 colon): > 100 µM
TGI (HL-60(TB) leukemia): > 100 µM
TGI (HOP-62 NSCLC): > 100 µM
TGI (HOP-92 NSCLC): > 100 µM
TGI (HS 578T breast): > 100 µM
TGI (HT29 colon): > 100 µM
TGI (IGROV1 ovarian): > 100 µM
TGI (K-562 leukemia): > 100 µM
TGI (KM12 colon): > 100 µM
TGI (LOX IMVI melanoma): > 100 µM
TGI (M14 melanoma): > 100 µM
TGI (MALME-3M melanoma): > 100 µM
TGI (MCF7 breast): > 100 µM
TGI (MDA-MB-231 breast): > 100 µM
TGI (MDA-MB-435): > 100 µM
TGI (MDA-N): > 100 µM
TGI (MOLT-4 leukemia): 63.1 µM
TGI (NCI-H226 lung): > 100 µM
TGI (NCI-H460 lung): > 100 µM
TGI (NCI-H522 lung): > 100 µM
TGI (NCI/ADR-RES ovarian): > 100 µM
TGI (OVCAR-4 ovarian): > 100 µM
TGI (OVCAR-5 ovarian): > 100 µM
TGI (OVCAR-8 ovarian): > 100 µM
TGI (PC-3 prostate): > 100 µM
TGI (RPMI-8226 leukemia): > 100 µM
TGI (RXF 393 renal): > 100 µM
TGI (SF-268 CNS): > 100 µM
TGI (SF-295 CNS): > 100 µM
TGI (SF-539 CNS): > 100 µM
TGI (SK-MEL-2 melanoma): 80.2 µM
TGI (SK-MEL-28 melanoma): > 100 µM
TGI (SK-MEL-5 melanoma): 64 µM
TGI (SK-OV-3 ovarian): > 100 µM
TGI (SN12C renal): > 100 µM
TGI (SNB-19 CNS): > 100 µM
TGI (SNB-75 CNS): 99.7 µM
TGI (SR leukemia): > 100 µM
TGI (SW-620 colon): > 100 µM
TGI (T-47D breast): > 100 µM
TGI (TK-10 renal): > 100 µM
TGI (U251 CNS): > 100 µM
TGI (UACC-257 melanoma): > 100 µM
TGI (UACC-62 melanoma): 45.6 µM
TGI (UO-31 renal): > 100 µM

CO/C(N)=C(\C#N)N=Cc1ccsc1
TGI (786-0 renal): > 100 µM
TGI (A498 renal): > 100 µM
TGI (A549 NSCLC): > 100 µM
TGI (ACHN renal): > 100 µM
TGI (BT-549 breast): 69.7 µM
TGI (CAKI-1 renal): > 100 µM
TGI (CCRF-CEM leukemia): 81 µM
TGI (COLO 205 colon): > 100 µM
TGI (DU-145 prostate): > 100 µM
TGI (EKVX NSCLC): > 100 µM
TGI (HCC-2998 colon): > 100 µM
TGI (HCT-116 colon): > 100 µM
TGI (HCT-15 colon): > 100 µM
TGI (HL-60(TB) leukemia): 45.9 µM
TGI (HOP-62 NSCLC): > 100 µM
TGI (HOP-92 NSCLC): > 100 µM
TGI (HS 578T breast): > 100 µM
TGI (HT29 colon): > 100 µM
TGI (IGROV1 ovarian): > 100 µM
TGI (K-562 leukemia): > 100 µM
TGI (KM12 colon): > 100 µM
TGI (LOX IMVI melanoma): 36.7 µM
TGI (M14 melanoma): > 100 µM
TGI (MALME-3M melanoma): > 100 µM
TGI (MCF7 breast): > 100 µM
TGI (MDA-MB-231 breast): > 100 µM
TGI (MDA-MB-435): > 100 µM
TGI (MDA-N): > 100 µM
TGI (MOLT-4 leukemia): > 100 µM
TGI (NCI-H226 lung): > 100 µM
TGI (NCI-H23 lung): > 100 µM
TGI (NCI-H460 lung): > 100 µM
TGI (NCI-H522 lung): 79.6 µM
TGI (NCI/ADR-RES ovarian): > 100 µM
TGI (OVCAR-3 ovarian): > 100 µM
TGI (OVCAR-4 ovarian): > 100 µM
TGI (OVCAR-5 ovarian): > 100 µM
TGI (OVCAR-8 ovarian): > 100 µM
TGI (PC-3 prostate): > 100 µM
TGI (RXF 393 renal): > 100 µM
TGI (SF-268 CNS): > 100 µM
TGI (SF-295 CNS): > 100 µM
TGI (SF-539 CNS): > 100 µM
TGI (SK-MEL-2 melanoma): > 100 µM
TGI (SK-MEL-28 melanoma): > 100 µM
TGI (SK-MEL-5 melanoma): > 100 µM
TGI (SK-OV-3 ovarian): > 100 µM
TGI (SN12C renal): > 100 µM
TGI (SNB-19 CNS): > 100 µM
TGI (SNB-75 CNS): > 100 µM
TGI (SW-620 colon): > 100 µM
TGI (T-47D breast): > 100 µM
TGI (TK-10 renal): > 100 µM
TGI (U251 CNS): > 100 µM
TGI (UACC-257 melanoma): > 100 µM
TGI (UACC-62 melanoma): > 100 µM
TGI (UO-31 renal): > 100 µM
